Measurements from paper PMC10096180, “Half-Sandwich Type Platinum-Group Metal Complexes of C-Glucosaminyl Azines: Synthesis and Antineoplastic and Antimicrobial Activities” (Molecules, 2023).
Where two headings read alike, the source gives them in different places.

How the values were obtained:
[1] = test system: A2780 cells; assay: MTT reduction assay, early toxicity, 4 h treatment; format: cell-based
In short: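 Cells plated the day before, exposed to compounds for 4 h, then MTT 0.5 mg/mL for 40–60 min at 37 °C; reduced dye dissolved in DMSO, read at 540 nm relative to vehicle wells. IC50 by four-parameter fit; otherwise % inhibition at 100 μM.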

[2] = Distribution coefficient (logD), n-octanol-PBS; format: physicochemical; settings: n-octanol-PBS (pH = 7.4) system
Procedure: The logD values of the newly synthesized complexes were determined according to a procedure described in our previous publications. page 64: Ir-7b +1.17 Rh-7b +1.41 Ru-7c +1.31 Os-7c +1.59 Ir-7c +1.40 Rh-7c +1.13 Ru-7d +1.26 Os-7d +1.42 Ir-7d +1.30 Rh-7d +1.04 Ru-7e +2.22 Os-7e +2.21 Ir-7e +1.39 Rh-7e +1.66 *logD was determined in an n-octanol-PBS (pH = 7.4) system 64 (14 pictures or pasted objects on this page, not shown here)

[3] = test system: Enterococcus faecalis (ATCC29212); assay: Broth microdilution MIC, reference strain; format: cell-based; settings: 24 h, tested range 0.08–40 μM, read-out: MIC E. faecalis ATCC 29,212
In short: (§1)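 EUCAST broth microdilution in Mueller–Hinton broth, inoculum 5.0 × 10^5 CFU/mL, compounds at 0.08–40 μM (twofold dilutions), 24 h at 37 °C. Plates read visually; MIC taken as lowest concentration giving ≥50% inhibition versus drug-free growth control.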

[4] = test system: Staphylococcus aureus (ATCC29213); assay: Broth microdilution MIC, reference strain; format: cell-based; settings: 24 h, 0.08–40 μM, read-out: MIC S. aureus ATCC 29213
In short: as §1

[5] = test system: vancomycin-resistant Enterococcus (VRE) clinical isolates; assay: Broth microdilution MIC, clinical VRE isolates; format: cell-based, E. faecium; settings: 24 h, 0.08–40 μM
In short: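 S. aureus and E. faecium clinical isolates (Debrecen, 2018–2020; MALDI-TOF-identified) tested by EUCAST broth microdilution in Mueller–Hinton broth at 5.0 × 10^5 CFU/mL across 0.08–40 μM (twofold). After 24 h at 37 °C, visually read; MIC is the lowest concentration giving ≥50% inhibition versus growth control. At least two runs in duplicate.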

[6] = test system: ID8 cells; assay: SRB assay, 48 h; format: cell-based
Procedure: (§2) Figure 8 Assessment of free ligand 3a and complex Ru-3a for cytostatic activity in multiple carcinomas. […] Cells were treated with the compounds in the concentrations indicated for 48 h; then, an SRB assay was performed. Data are represented as average ± SD from three biological replicates; individual assays were performed in duplicates. Values were normalized for vehicle-treated cells; absorbance for vehicle-treated cells equals 1. Statistical significance was assessed using a one-way ANOVA test comparing all values to the lowest concentration of a compound. Before the test, normality was assessed using the Shapiro–Wilk test, and the post hoc test was chosen accordingly. […] An SRB assay measures protein content of cells in correlation with the cell number in an assay well and can therefore be used to assess cell proliferation or long-term cytostasis. Cells were seeded in 96-well plates the day before the assay. Cells were treated with the compounds for 48 h. Then medium was removed, and cells were fixed with 10% trichloroacetic acid. […] Stained cells were washed in 1% acetic acid 5 times; acetic acid was removed, and cells were left to dry. Protein-bound SRB was released by adding 100 μL 10 mM Tris base. Plates were measured in a plate photometer (Thermo Scientific Multiscan GO spectrophotometer, Waltham, MA, USA) at 540 nm. On each plate, wells were designed to contain vehicle-treated cells. […] Statistical analysis was performed using version 8.0.1 of GraphPad Prism. Values were tested for normal distribution using the Shapiro–Wilk normality test. […] In other cases, the percentage of inhibition was taken for the maximum concentration (100 μM).

[7] = test system: U251 cells; assay: SRB assay, 48 h; format: cell-based
Procedure: as §2

[8] = test system: MCF7 cells; assay: SRB assay, 48 h; format: cell-based
Procedure: as §2

[9] = test system: Capan2 cells; assay: SRB assay, 48 h; format: cell-based
Procedure: as §2

Cc1ccc(C(C)C)cc1.F[P-](F)(F)(F)(F)F.N[C@@H]1[C@@H](OCc2ccccc2)[C@H](OCc2ccccc2)[C@@H](COCc2ccccc2)O[C@H]1c1ccccn1.[Cl][Ru+] [Ru-3a]
IC50 [1]: 8020 nM | A2780 MTT Max Inhibition ([1]; inhibition at maximum concentration (100 μM) where no plateau, ND = not detectable): >90% | logD [2]: 2.72 | MIC [3]: 10 µM | MIC [4]: 5 µM | MIC ([5]; clinical isolate 25,051 VRE, read-out: MIC 25,051 VRE): 5 µM | MIC ([5]; clinical isolate 25,498 VRE, read-out: MIC 25,498 VRE): 5 µM | MIC ([5]; clinical isolate 27,085 VRE, read-out: MIC 27,085 VRE): 5 µM | IC50 [6]: 2540 nM | ID8 SRB Max Inhibition [6]: >90% | IC50 [7]: 3970 nM | U251 SRB Max Inhibition [7]: >90% | IC50 [8]: 2300 nM | MCF7 SRB Max Inhibition [8]: >90% | Capan2 SRB Max Inhibition [9]: >90% | IC50 [9]: 2250 nM
